Laboratory results taken from patent US10626077B2, “Salvianolic acid compound T, preparation method therefor, and use thereof” (TASLY PHARMACEUTICAL GROUP CO., LTD., priority 2013, dated 2020).

Assays:
[1] = Determination of reducing capacity (potassium ferricyanide / ferric chloride, absorbance at 700 nm)
Description: 0.5 ml of 200 mM phosphate buffer (pH6.8) containing different concentrations of the (S)/(R)-salvianolic acid T and 0.5 ml of 1.0% (w/v) potassium ferricyanide solution were sucked respectively and cooled on an ice bath after being heated on a water bath (50[…]) for 20 min. 0.5 ml of 10% trichloroacetic acid solution was added and centrifuged at […] for 10 min. 1.0 ml of the resulting supernatant was taken, into which 1.0 ml of distilled water and 0.2 ml of 0.1% (w/v) ferric chloride solution were added, stood still for 10 min and the absorbance was measured at 700 nm. Meanwhile, the blank experiment was carried out. Vitamin C is a strongly reducing substance, acting as positive control in this study. Reducing capacity of the sample is represented by subtracting the absorbance of the blank control from the absorbance of the tested sample. Thus, it means the higher absorbance, the stronger reducing capacity.

[2] = test system: pituitrin-caused acute myocardial ischemia in rats; test: Pituitrin-caused experimental acute myocardial ischemia in rats (ECG J point and T wave); type: in vivo, SD rats; parameters: J point / T wave: unit not given here
Description: Administration dose of the (R)-salvianolic acid T lyophilized powder was 10 mg/kg body-weight in high-dose group; 5.0 mg/kg body-weight in low-dose group.
2.1 Screening of Animals: Before formal experiment, rats were injected via vena caudalis with pituitrin (Pit) (1 U/kg). Normal ECG and the ECG of 5 min after injection were recorded to observe J point elevation and T wave abnormality. Animals who had abnormal ECG before injection or who were insensitive to Pit were rejected.
2.2 Grouping of Animals: The desirable rats were divided into 3 groups randomly, respectively named […]Model control group, □(R)-salvianolic acid T lyophilized powder low-dose group; □(R)-salvianolic acid T lyophilized powder high-dose group.
3. Experimental Methods: SD rats, in body-weight of 220-250 g, half male and half female, were randomly divided into groups, 10 animals in each group. The rats in the treatment groups were drenched with aqueous suspensions of different samples each day, while the rats in the model control group were drenched with equal volume of normal saline. All animals were consecutively administered for 7 days. 40 min after final administration, the rats were anesthetized and connected with devices to record lead II normal ECG. The pituitrin (Pit) was injected at a constant speed in the dosage of 1 U/kg body-weight via vena caudalis within about 10 s. ECG changes were recorded at 0 s, 5 s, 10 s, 15 s, 30 s, 45 s, 1 min, 2 min, 3 min, 4 min, 5 min, 10 min and 15 min after administration. Differences between pre injection and post injection of Pit of each group as well as between the treatment group and the model control group were compared to analyze changes of J point and T wave, and the data were analyzed by t-test.

[3] = test system: L929 cells induced by TGF-β1; test: Inhibition of L929 cell proliferation induced by TGF-β1 (MTT); type: cell-based; details: 2 μg/L TGF-β1, 72 h, MTT method
Description: L929 cells with a cell population of 5×10^7/L adjusted by DMEM culture solution containing 10% fetal bovine serum were seeded into 96 well plate, cultured for 24 h. Supplementing the same culture medium containing 2 μg/L TGF-β1 and (S)/(R)-salvianolic acid T of different concentrations. There were 6 multiple pores in each group, final concentration of (S)/(R)-salvianolic acid T was set as 0, 1, 3, 10, 20, 40, 80, 150 μmol/L. Removing medium after being cultured for 72 h, assaying the cell activity by MTT method.

[4] = DPPH free-radical scavenging reaction
Description: Absorbance of the reaction solution was measured at 517 nm. In this study, vitamin C was regarded as a positive control. Free-radical scavenging rate was calculated in accordance with the following equation: Free-radical scavenging rate (%)=[1−Asample/Acontrol)/Acontrol]×100% Wherein, the Asample means the absorbance of the tested samples, and Acontrol means the absorbance of blank control.

[5] = test system: mice pulmonary fibrosis induced by bleomycin; test: Anti-pulmonary fibrosis experiment in mice induced by bleomycin; type: in vivo, Kunming mice; details: 3 weeks
Description: Dividing the 40 mice into 4 groups: □ normal control group, given nasal dripping of normal saline, drenched with normal saline; □ model control group:given nasal dripping of bleomycin, drenched with normal saline; □(S)-salvianolic acid T group (16 mg/kg): given nasal dripping of bleomycin, drenched with (S)-salvianolic acid T solution; □(R)-salvianolic acid T group (16 mg/kg): given nasal dripping of bleomycin, drenched with (R)-salvianolic acid T solution; 10 mice in each group.
On the first day of the experiment, the mice were anesthetized with chloral hydrate, each mouse was given disposable nasal dripping of 50 μg bleomycin to establish the pulmonary fibrosis model. On the second day of the experiment, two treatment groups were drenched with (S)/(R)-salvianolic acid T, the model group and the normal group were drenched with equal volume of normal saline, once each day, 3 consecutive weeks. On the 21th day of the experiment, serum was separated from the blood collected from the orbital vein to detect TGF-β1, the mice were killed to take lungs, ground with double distilled water (the ratio of lungs and double distilled water was 1:5 (w/v)) into tissue homogenate, centrifuged to detect the MDA, superoxide dismutase (SOD), catalase (CAT), peroxidase (POD) in the tissues.

[6] = compared with positive control vitamin C
[7] = high-dose group (10 mg/kg), 0 s after pituitrin
[8] = high-dose group (10 mg/kg), 15 s after pituitrin
[9] = high-dose group (10 mg/kg), 30 s after pituitrin
[10] = high-dose group (10 mg/kg), 45 s after pituitrin
[11] = high-dose group (10 mg/kg), 1 min after pituitrin
[12] = high-dose group (10 mg/kg), 5 min after pituitrin
[13] = high-dose group (10 mg/kg), 10 min after pituitrin
[14] = high-dose group (10 mg/kg, drenched 7 days), normal ECG before pituitrin
[15] = low-dose group (5.0 mg/kg), 0 s after pituitrin
[16] = low-dose group (5.0 mg/kg), 15 s after pituitrin
[17] = low-dose group (5.0 mg/kg), 30 s after pituitrin
[18] = low-dose group (5.0 mg/kg), 45 s after pituitrin
[19] = low-dose group (5.0 mg/kg), 1 min after pituitrin
[20] = low-dose group (5.0 mg/kg), 5 min after pituitrin
[21] = low-dose group (5.0 mg/kg), 10 min after pituitrin
[22] = low-dose group (5.0 mg/kg, drenched 7 days), normal ECG before pituitrin
[23] = 16 mg/kg, lung tissue homogenate

O=C(/C=C/c1ccc(O)c(O)c1/C(=C\c1ccc(O)c(O)c1)C(=O)O)O[C@H](Cc1ccc(O)c(O)c1)C(=O)O [(R)-salvianolic acid T]
reducing capacity compared with vitamin C [1, 6]: much stronger than that of vitamin C | reducing capacity (absorbance at 700 nm minus blank control) ([1]; sample 3.125 μg/ml): 0.152 ± 0.034 | reducing capacity (absorbance at 700 nm minus blank control) ([1]; sample 6.25 μg/ml): 0.212 ± 0.009 | reducing capacity (absorbance at 700 nm minus blank control) ([1]; sample 12.5 μg/ml): 0.042 ± 0.011 | reducing capacity (absorbance at 700 nm minus blank control) ([1]; sample 25 μg/ml): 0.761 ± 0.018 | reducing capacity (absorbance at 700 nm minus blank control) ([1]; sample 50 μg/ml): 1.561 ± 0.026 | effect of anti-acute myocardiac ischemia ([2]; 10.0 mg/kg): had effect of anti-acute myocardiac ischemia | J point [2, 7]: −0.040 ± 0.039 | T wave [2, 7]: 0.128 ± 0.106 | J point [2, 8]: −0.069 ± 0.035 | T wave [2, 8]: 0.150 ± 0.101 | J point [2, 9]: −0.058 ± 0.035 | T wave [2, 9]: 0.100 ± 0.095 | J point [2, 10]: −0.052 ± 0.031 | T wave [2, 10]: 0.134 ± 0.105 | J point [2, 11]: −0.016 ± 0.037 | T wave [2, 11]: 0.145 ± 0.099 | J point [2, 12]: −0.058 ± 0.049 | T wave [2, 12]: 0.127 ± 0.104 | J point [2, 13]: -0.061 ± 0.049 | T wave [2, 13]: 0.150 ± 0.102 | J point [2, 14]: −0.049 ± 0.037 | T wave [2, 14]: 0.099 ± 0.073 | J point [2, 15]: −0.040 ± 0.027 | T wave [2, 15]: 0.134 ± 0.104 | J point [2, 16]: 0.023 ± 0.039 | T wave [2, 16]: 0.211 ± 0.109 | J point [2, 17]: −0.052 ± 0.022 | T wave [2, 17]: 0.189 ± 0.120 | J point [2, 18]: −0.030 ± 0.041 | T wave [2, 18]: 0.176 ± 0.137 | J point [2, 19]: −0.016 ± 0.032 | T wave [2, 19]: 0.151 ± 0.097 | J point [2, 20]: −0.034 ± 0.052 | T wave [2, 20]: 0.121 ± 0.101 | J point [2, 21]: −0.025 ± 0.051 | T wave [2, 21]: 0.142 ± 0.099 | J point [2, 22]: −0.054 ± 0.046 | T wave [2, 22]: 0.101 ± 0.069 | IC50 [3]: 26.9 µM | free-radical scavenging compared with vitamin C [4, 6]: much higher free-radical scavenging than that of the vitamin C | Free-radical scavenging rate ([4]; sample 0.625 μg/ml, 100 μM DPPH, 20 min, 25° C.): 10.51 ± 0.73% | Free-radical scavenging rate ([4]; sample 1.25 μg/ml): 28.15 ± 2.47% | Free-radical scavenging rate ([4]; sample 2.5 μg/ml): 43.41 ± 1.85% | Free-radical scavenging rate ([4]; sample 5 μg/ml): 85.59 ± 8.75% | Free-radical scavenging rate ([4]; sample 10 μg/ml): 99.47 ± 5.14% | Serum TGF-β1 ([5]; 16 mg/kg drenched once each day, day 21): 254 ± 29 ng/L | CAT [5, 23]: 23.1 ± 2.9 U/g | MDA [5, 23]: 311 ± 29 µg/g | POD [5, 23]: 16.4 ± 1.9 U/g | SOD [5, 23]: 52.2 ± 5.1 U/g | Tissue TGF-β1 [5, 23]: 562 ± 69 pg/g
